How the values were obtained:
Tel-TrkA = target: T1, Tel-TrkA (Homo sapiens, UniProt P04629); test: Inhibition of proliferation of Ba/F3 cells expressing Tel-TrkA (BaF3/Tel-TrkA, luciferase/Bright Glo readout); assay type: cell-based; conditions: read-out: Ba/F3 Tel-TrkA IC 50
T1 construct: dimerization domain of Tel (ETV6) transcription factor (fusion partner, human ETV6 P41212); expressed in transfected cells; host or cells: luciferase expressing Ba/F3 murine hematopoietic progenitor cells; the other entry of the earlier key: ETV6 (P41212, Transcription factor ETV6)
T1 sequence (P04629 510-796 limits assumed): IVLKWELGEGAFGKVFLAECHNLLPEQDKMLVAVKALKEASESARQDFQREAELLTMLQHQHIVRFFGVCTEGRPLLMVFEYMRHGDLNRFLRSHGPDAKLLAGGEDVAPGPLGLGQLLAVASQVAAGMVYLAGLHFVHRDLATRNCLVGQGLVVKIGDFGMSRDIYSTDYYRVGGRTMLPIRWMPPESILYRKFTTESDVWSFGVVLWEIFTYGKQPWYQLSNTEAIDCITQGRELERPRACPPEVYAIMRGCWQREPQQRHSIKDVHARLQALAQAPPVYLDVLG
Protocol: (§1) Test compounds were dissolved in DMSO (10 mM) and transferred into 1.4 mL flat bottom or V-shaped Matrix tubes carrying a unique 2D matrix chip by individual compound hubs. The numbers of these chips were distinctively linked to the individual compound identification numbers. The stock solutions were stored at −20° C. if not used immediately. For the test procedure the vials were defrosted and identified by a scanner whereby a working sheet is generated that guides the subsequent working steps.
(§2) Compound dilutions were made in 384 well plates. This format enabled the assay of maximally 28 individual test compounds at 12 concentrations (single points) including 2 reference compounds. The dilution protocol included the production of pre-dilution plates, master plates and assay plates: • Compound plates: 30 μL of individual compound (10 mM) DMSO solution including standard compound were transferred into columns 1 and 13 of a 384 well plate. 20 μL of DMSO were added to the rest of the wells and the compounds were serially diluted (1:3) by transferring 10 μL from a well in column 1 or 13 to the next well in column 2 or 14 respectively and successively with the help of a Minitrack robot. • Assay plates: Identical assay plates were then prepared by adding […] each of compound dilutions of the compound plates into 384-well “assay plates”. In the following the compounds were mixed with 50 μL of assays components (cells or enzyme) and tested for their inhibitory activity.
(§3) Compounds of Formula (I) were tested for their antiproliferative effect on Ba/F3 cells expressing either Tel-TrkA, Tel-TrkB or Tel-TrkC and an additional panel of 34 selected diverse kinases activated by fusion to the dimerizing partners Bcr or Tel (Abl, A1K, BMX, EphA3, EphB2, FGFR2, FGFR3, FGFR4, FGR, FLT1, FLT3, FLT4, FMS, IGF1R, InsR, JAK1, JAK2, JAK3, KDR, Kit, Lck, Lyn, MER, MET, PDGFRb, RET, RON, Ros-1, Src, Aurora, TIE2, TYK2, Tie1, ZAP70). The antiproliferative effect of these compounds on the different cell lines and on the non transformed cells were tested at 12 different concentrations of 3-fold serially diluted compounds in 384 well plates as described above (in media lacking IL3). The IC50 values of the compounds the different cell lines were determined from dose response curves.
(§4) The cell line used is the luciferase expressing Ba/F3 murine hematopoietic progenitor cell line transformed with human Tel-TrkA, Tel-TrkB or Tel-TrkC cDNAs (Ba/F3 EN A/B/C). These cells maintained in RPMI/10% fetal bovine serum (RPMI/FCS) supplemented with penicillin 50 mg/mL, streptomycin 50 mg/mL and L-glutamine […]. Untransformed Ba/F3 cells were similarly maintained with the addition 5 ng/ml of murine recombinant IL3. 50 μl of a Ba/F3 or Ba/F3 EN A/B/C cell suspension were plated in Greiner 384 well microplates (white)) at a density of 2000 cells per well. […] The cells were incubated for 48 hours at 37° C., 5% CO2. 25 μl of Bright Glo® (Promega) luciferase substrate is added to each well. The emited luminiscence is quantified using the ACQUEST™ luminescence system (Molecular Devices). IC50 values were calculated by linear regression analysis of the percentage inhibition of each compound at 12 concentrations.

Tel-TrkB = target: T2, Tel-TrkB (Homo sapiens, UniProt Q16620); test: Inhibition of proliferation of Ba/F3 cells expressing Tel-TrkB (BaF3/Tel-TrkB); assay type: cell-based; conditions: Ba/F3 Tel-TrkB cells; read-out: Ba/F3 Tel-TrkB IC 50
T2 construct: dimerization domain of Tel (ETV6) transcription factor (fusion partner, human ETV6 P41212); expressed in transfected cells; host or cells: luciferase expressing Ba/F3 murine hematopoietic progenitor cells; the other entry of the earlier key: ETV6 (P41212, Transcription factor ETV6)
T2 sequence (Q16620 538-822 limits assumed): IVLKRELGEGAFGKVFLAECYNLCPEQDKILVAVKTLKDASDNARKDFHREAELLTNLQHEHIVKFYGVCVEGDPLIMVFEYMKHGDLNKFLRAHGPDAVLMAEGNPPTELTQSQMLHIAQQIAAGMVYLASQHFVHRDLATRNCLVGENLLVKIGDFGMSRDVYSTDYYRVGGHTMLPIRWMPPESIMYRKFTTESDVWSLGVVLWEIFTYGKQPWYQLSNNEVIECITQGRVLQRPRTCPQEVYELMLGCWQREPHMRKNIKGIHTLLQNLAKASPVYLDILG
Protocol: as §1, §2, §3, §4

[1] = target: T3, full length rTrkA and mNGF (Rattus norvegicus, UniProt P35739); test: Inhibition of proliferation of Ba/F3 cells co-expressing full length rTrkA and mNGF (BaF3/TrkA-NFG); assay type: cell-based; conditions: BaF3 TRKA-NGF cells, CTG readout
T3 construct: co-expressing full length rTrkA and mNGF; expressed in transfected cells; host or cells: Ba/F3 cells
T3 sequence (P35739 33-799): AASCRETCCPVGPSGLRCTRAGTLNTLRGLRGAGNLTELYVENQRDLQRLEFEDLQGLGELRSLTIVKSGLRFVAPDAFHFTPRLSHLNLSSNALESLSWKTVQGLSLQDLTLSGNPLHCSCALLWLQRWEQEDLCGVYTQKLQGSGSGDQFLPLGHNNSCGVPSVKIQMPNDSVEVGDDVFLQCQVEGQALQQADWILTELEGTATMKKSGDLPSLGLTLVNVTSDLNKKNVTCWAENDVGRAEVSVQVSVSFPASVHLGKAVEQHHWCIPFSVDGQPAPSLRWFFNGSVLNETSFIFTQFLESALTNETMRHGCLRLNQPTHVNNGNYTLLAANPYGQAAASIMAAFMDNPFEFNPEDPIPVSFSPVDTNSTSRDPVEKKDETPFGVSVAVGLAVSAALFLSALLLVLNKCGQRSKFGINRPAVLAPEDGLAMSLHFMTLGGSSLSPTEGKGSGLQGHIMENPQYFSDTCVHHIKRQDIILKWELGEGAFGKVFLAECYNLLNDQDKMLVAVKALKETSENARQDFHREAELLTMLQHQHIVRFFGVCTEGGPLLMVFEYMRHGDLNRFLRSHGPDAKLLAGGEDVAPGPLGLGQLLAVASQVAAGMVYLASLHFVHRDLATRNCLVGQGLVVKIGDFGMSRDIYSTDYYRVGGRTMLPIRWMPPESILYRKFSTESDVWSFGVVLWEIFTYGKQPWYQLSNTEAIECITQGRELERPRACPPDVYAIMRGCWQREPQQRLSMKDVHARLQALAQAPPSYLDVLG
T3 sequence (P01139 122-241 partner): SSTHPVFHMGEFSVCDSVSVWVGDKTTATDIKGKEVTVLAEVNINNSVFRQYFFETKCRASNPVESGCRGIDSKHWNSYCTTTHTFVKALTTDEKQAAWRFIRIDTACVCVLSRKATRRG

parental BaF3 cells = test: Proliferation of parental (untransformed) Ba/F3 cells maintained with IL3; assay type: cell-based, murine; conditions: Mus musculus, BaF3, parental Ba/F3 cells; read-out: Ba/F3 IC 50
Protocol: as §1, §2
The cell line used is the luciferase expressing Ba/F3 murine hematopoietic progenitor cell line transformed with human Tel-TrkA, Tel-TrkB or Tel-TrkC cDNAs (Ba/F3 EN A/B/C). These cells maintained in RPMI/10% fetal bovine serum (RPMI/FCS) supplemented with penicillin 50 mg/mL, streptomycin 50 mg/mL and L-glutamine […]. Untransformed Ba/F3 cells were similarly maintained with the addition 5 ng/ml of murine recombinant IL3. 50 μl of a Ba/F3 or Ba/F3 EN A/B/C cell suspension were plated in Greiner 384 well microplates (white)) at a density of 2000 cells per well. 50 nl of serially diluted test compound (10-0.0001 mM in DMSO solution) is added to each well. The cells were incubated for 48 hours at 37° C., 5% CO2. 25 μl of Bright Glo® (Promega) luciferase substrate is added to each well. The emited luminiscence is quantified using the ACQUEST™ luminescence system (Molecular Devices). IC50 values were calculated by linear regression analysis of the percentage inhibition of each compound at 12 concentrations.

KM12 luc = KM12 luc cell proliferation assay (Table 8); assay type: cell-based; conditions: KM12 luc cells; read-out: KM12 luc IC 50

| Structure (SMILES) | IC50 (Tel-TrkA) [nM] | IC50 (Tel-TrkB) [nM] | BaF3 TRKA-NGF CTG IC 50 [1] [nM] | IC50 (parental BaF3 cells) [nM] | IC50 (KM12 luc) [nM] |
| --- | --- | --- | --- | --- | --- |
| OCc1cccc(-c2cnc3ccc(N4CCCC4c4cccc(F)c4)nn23)n1 (stereo not shown) [Table 7-Compound 2] | 18 | 13 | 31 | > 10000 | 26 |
| O=C1CN(c2cccc(-c3cnc4ccc(N5CCCC5c5cccc(F)c5)nn34)n2)CCN1 (stereo not shown) [Table 4-Compound 5] | 0.7 | 0.4 | 2.2 | > 10000 | 1.2 |
| Fc1cccc(C2COCCN2c2ccc3ncc(-c4cccc(OC5CCNCC5)n4)n3n2)c1 (stereo not shown) [Table 2-Compound 18] | 36 | 36 | 56 | > 10000 | 22 |
| OCC(O)CNc1cccc(-c2cnc3ccc(N4CCCC4c4cccc(F)c4)nn23)n1 (stereo not shown) [Table 4-Compound 16] | 6.8 | 1.5 | 5.2 | > 10000 | 2.2 |
| N#Cc1cc(-c2cnc3ccc(N4CCOCC4c4cccc(F)c4)nn23)ccc1F (stereo not shown) [Table 2-Compound 6] | 58 | 44 | 78 | > 10000 | 56 |
| Fc1cccc(C2COCCN2c2ccc3ncc(-c4cccc(N5CC6CC5CN6)n4)n3n2)c1 (stereo not shown) [Table 7-Compound 9] | 59 | 63 | 53 | > 10000 | 14 |
| O=C(c1cccc(-c2cnc3ccc(N4CCCC4c4cccc(F)c4)nn23)n1)N1CCC(O)CC1 (stereo not shown) [Table 7-Compound 158] | 65 | 52 | 87 | > 11000 | 19 |
| CCN(CC)CCNc1cccc(-c2cnc3ccc(N4CCCC4c4cccc(F)c4)nn23)n1 (stereo not shown) [Table 4-Compound 14] | 21 | 14.9 | 45.2 | 5720 | 30.8 |
| N#Cc1cc(-c2cnc3ccc(N4CCOCC4c4cccc(F)c4)nn23)ccc1N1CCC(O)CC1 (stereo not shown) [Table 2-Compound 7] | 83 | 230 | 550 | > 10000 | 140 |
| OC1CCN(c2ccc(-c3cccc(-c4cnc5ccc(N6CCCC6c6cccc(F)c6)nn45)n3)cn2)CC1 (stereo not shown) [Table 7-Compound 61] | 8.1 | 7.9 | 9.8 | > 10000 | 4 |
| Fc1cccc(C2COCCN2c2ccc3ncc(-c4ccccn4)n3n2)c1 (stereo not shown) [Table 2-Compound 4] | 8.6 | 5.8 | 17 | > 10000 | 8.3 |
| OC1CCN(c2cccc(-c3cnc4ccc(N5CCOCC5c5cccc(F)c5)nn34)n2)CC1 (stereo not shown) [Table 7-Compound 1] | 17 | 17 | 30 | > 10000 | 7.6 |
| O=C(NCCO)C1CCN(c2cccc(-c3cnc4ccc(N5CCOCC5c5cccc(F)c5)nn34)n2)CC1 (stereo not shown) [Table 7-Compound 12] | 6.1 | 6.7 | 8.1 | > 10000 | 1.2 |
| Cc1cnc(-c2cccc(-c3cnc4ccc(N5CCCC5c5cccc(F)c5)nn34)n2)[nH]1 (stereo not shown) [Table 7-Compound 3] | 6.9 | 6.6 | 19 | 3870 | 17 |
| N#Cc1ccc(-c2cnc3ccc(N4CCOCC4c4cccc(F)c4)nn23)cc1 (stereo not shown) [Table 2-Compound 1] |  |  |  | > 9690 | 7 |
| CC(F)C(=O)N(C)C1CCN(c2cccc(-c3cnc4ccc(N5CCCC5c5cccc(F)c5)nn34)n2)C1 (stereo not shown) [Table 7-Compound 201] | 13 | 15 | 20 | > 11000 | 10 |
| OCCNc1ncc(-c2cnc3ccc(N4CCCC4c4cccc(F)c4)nn23)cn1 (stereo not shown) [Table 7-Compound 171] | 224 | 129 | 238 | > 11000 |  |
| Fc1ccc(N2CCN(c3cccc(-c4cnc5ccc(N6CCC[C@@H]6c6cccc(F)c6)nn45)n3)CC2)cc1 [Table 7-Compound 257] | 130 | 289 | 101 | > 11000 |  |
| OCCN1CCN(c2cccc(-c3cnc4ccc(N5CCOCC5c5cccc(F)c5)nn34)n2)CC1 (stereo not shown) [Table 7-Compound 5] | 3.8 | 6.2 | 6.4 | 4820 |  |
| Fc1cccc(C2COCCN2c2ccc3ncc(-c4cccc(NCCN5CCNCC5)n4)n3n2)c1 (stereo not shown) [Table 7-Compound 10] | 61 | 71 | 77 | > 10000 |  |
| CC(C)NC(=O)CN1CCN(c2cccc(-c3cnc4ccc(N5CCCC5c5cccc(F)c5)nn34)n2)CC1 (stereo not shown) [Table 7-Compound 96] | 1 | 2 | 3 | 5990 |  |
